This note sets out measurements from patent publication US20090053168A1, “TREATMENTS OF B-CELL PROLIFERATIVE DISORDERS” (priority 2007, published 2009).

Counter-ions that a name gives are not always drawn. Like-named read-outs stand apart in the source and are kept apart here.

One experiment deals with MM.1R cells. The experiment can be described thus: Anti-proliferation assay (ATPLite, 72 h), MM.1R. It is filed as cell-based.
Experiment [1] deals with MM.1S cells. The settings on record: MM.1S.
A further experiment has as its system H929 cells. Kind of experiment: Anti-proliferation assay (ATPLite, 72 h), H929. The class given is cell-based. The settings on record: for synergy score: H929; for Synergy score with dexamethasone, H929: combination with dexamethasone, Loewe-based Synergy Score, 72 h.
A further experiment has as its system RPMI-8226 cells. The experiment can be described thus: Anti-proliferation assay (ATPLite, 72 h), RPMI-8226. As to conditions: for synergy score: RPMI-8226. It is filed as cell-based.
In experiment [2] the test system is MM.1S cells. The experiment can be described thus: Anti-proliferation assay (ATPLite, 72 h), MM.1S. As to conditions: for synergy score: MM.1S; for Synergy score with dexamethasone, MM.1S: combination with dexamethasone, Loewe-based Synergy Score. (In general: Cellular ATP, detected with luciferase, serves as a proxy for viable cell number.)
Experiment [3] concerns chronic lymphocytic leukemia (CLL) cells. Kind of experiment: Apoptosis assay (Hoechst 33342 flow cytometry, 48 h) on patient CLL cells. The class given is cell-based, human. As to conditions: for Induction of CLL cell apoptosis: Patient #1. From the text:
Patients with active infections or other serious medical conditions were not included in this study. Patients with white blood cell counts of less than 15,000/μl by automated analysis were excluded from this study. Whole blood was layered on Ficoll-Hystopaque (Sigma), and peripheral blood mononuclear cells (PBMC) isolated after centrification. […] One million cells were stained with anti-CD5-PE and anti-CD19-PE-Cy5 (Becton […].). The percentage of B-CLL cells was defined as the percentage of cells doubly expressing CD5 and CD19, as determined by flow cytometry. […] Compound master plates were diluted 1:50 into complete media to create working compound dilutions. Compound crosses were then created by diluting two working dilution plates 1:10 into each plate of cells. […] Hoechst 33342 (Molecular Probes, Eugene Oreg.) at a final concentration of 0.25 μg/mL was added to each well and the cells incubated at 37° C. for an additional ten minutes before being placed on ice until analysis. Plates were then analyzed on a LSR-II flow cytometer (Becton Dickenson, Franklin Lakes, N.J.) equipped with the High Throughput Sampling (HTS) option in high throughput mode. […] The apoptotic fraction was calculated using FlowJo software (Tree Star Inc., Ashland, Oreg.) after excluding debris by a FSC/SSC gate and subsequently gating for cells that accumulate the Hoechst dye.

[4] abbreviates: in combination with HE-NECA, MM.1R.
The mark [5] stands for this setting: in combination with ADAC, MM.1R.
[6] abbreviates: combination with dexamethasone, Loewe-based Synergy Score, 72 h.
Setting [7] is: Homo sapiens, MM1.S, read-out: percent inhibition of cell proliferation.
The mark [8] stands for this setting: Homo sapiens, MM1.S, 72 h, read-out: percent inhibition of cell proliferation.

Turning to `O=c1cc(N2CCOCC2)oc2c(-c3ccccc3)cccc12` [LY 294002], the “synergy score” value with MM.1R cells (setting [4]) is on record as 0.83.
In the case of `Nc1nc2c(cnn2CCc2ccccc2)c2nc(-c3ccco3)nn12` [SCH 58261], the “blocking of chloro-IB-MECA antiproliferative activity” value in the experiment on MM.1S cells [1] (SCH 58261 78 nM, 72 hours, 2-fold dilutions of chloro-IB-MECA) is more than 50%; with MM.1S cells [1] (antagonist concentration increased 2-fold) it was more than 70%.
Take `CCCCc1oc2ccccc2c1C(=O)c1cc(I)c(OCCN(CC)CC)c(I)c1` [Amiodarone]: the “synergy score” value in the experiment on MM.1R cells (setting [4]) is given as 0.67.
Same read-out and setting: under `CC(C)[C@]12O[C@H]1[C@@H]1O[C@]13[C@]1(O[C@H]1C[C@H]1C4=C(CC[C@@]13C)C(=O)OC4)[C@@H]2O` [Triptolide] stands 2.12.
Regarding `CC(=O)S[C@@H]1CC2=CC(=O)CC[C@]2(C)[C@H]2CC[C@@]3(C)[C@@H](CC[C@@]34CCC(=O)O4)[C@H]12` [Spironolactone], the synergy score in the experiment on H929 cells (in combination with ADAC) was 0.6779; in the experiment on H929 cells (in combination with HE-NECA), 1.831; in the experiment with MM.1R cells (setting [5]), 2.029; in the experiment on MM.1R cells (setting [4]), 1.151; in the experiment with RPMI-8226 cells (in combination with ADAC), 0.8213; in the experiment with RPMI-8226 cells (in combination with HE-NECA), 0.6876. Besides, the synergy score in the experiment on MM.1S cells [2] (in combination with ADAC) came out at 1.444; in the experiment with MM.1S cells [2] (in combination with HE-NECA), 1.835.
As to `CCNC(=O)[C@H]1O[C@@H](n2cnc3c(N)nc(NCCc4ccc(CCC(=O)O)cc4)nc32)[C@H](O)[C@@H]1O` [CGS-21680, 2-(4-(2-carboxyethyl)phenethylamino)-5′-N-ethylcarboxamidoadenosine], the “Induction of CLL cell apoptosis” value is given as 12% in experiment [3] (CGS-21680 0.05 μM alone), 14% in experiment [3] (CGS-21680 0.15 μM alone) and 16% in experiment [3] (CGS-21680 0.45 μM alone). In addition, in experiment [3] (patient 1, 48 hours), the “apoptosis, CLL cells patient 1” value was 14%. In addition, the “apoptosis, CLL cells patient #2” value in experiment [3] (patient #2, 48 hours) was 9%. Besides, the “Synergy score with dexamethasone, RPMI-8226” value (“Synergy score … RPMI-8226” for short) with RPMI-8226 cells (setting [6]) was 2.54. For the same compound, the “Synergy score with dexamethasone, MM.1S” value in the experiment on MM.1S cells [2] (72 h) came out at 4.73.
For `CCCCOc1ccc(CC(=O)NO)cc1` [Bufexamac], the synergy score was determined as 1.12 with H929 cells (in combination with ADAC); 3.17 in the experiment with H929 cells (in combination with HE-NECA); 1.532 with MM.1R cells (setting [5]); 3.173 in the experiment with MM.1R cells (setting [4]); 1.399 in the experiment with RPMI-8226 cells (in combination with ADAC); 0.3833 in the experiment with RPMI-8226 cells (in combination with HE-NECA). The synergy score in the experiment on MM.1S cells [2] (in combination with ADAC) was determined as 1.479; in the experiment on MM.1S cells [2] (in combination with HE-NECA), 3.476.
For `COc1ccc(Cc2nccc3cc(OC)c(OC)cc23)cc1OC` [Papaverine, 1-[(3.4-dimethoxyphenyl)-methyl]-6,7-dimethoxyisoquinolone], the “Synergy score with dexamethasone, H929” value with H929 cells was determined as 3.05. The “Synergy score … RPMI-8226” value in the experiment with RPMI-8226 cells (setting [6]) worked out at 3.49. The “Synergy score with dexamethasone, MM.1S” value in the experiment on MM.1S cells [2] (72 h) is recorded as 2.99.
Regarding `C#C[C@]1(O)CC[C@H]2[C@@H]3CCC4=CC(=O)CCC4=C3C=C[C@@]21CC` [Gestrinone], the “synergy score” value with MM.1R cells is recorded as 1.19.
As for `COc1ccc(Cc2nn3c([C@@H](CCCc4ccccc4)[C@@H](C)O)nc(C)c3c(=O)[nH]2)cc1OC` [BAY 60-7550, 2-(3,4-dimethoxybenzyl)-7-[(1R)-1-[(1R)-1-hydroxyethyl]-4-phenylbutyl]-5-methylimidazo[5,1-f][1,2,4]triazin-4(3H)-one], the “Synergy score with dexamethasone, H929” value with H929 cells is listed as 0.822. Besides, in the experiment with RPMI-8226 cells (setting [6]), the “Synergy score … RPMI-8226” value came to 1.37. For the same compound, in the experiment with MM.1S cells [2] (setting [7]), the inhibition at 0.437 µM was 2.2%, the inhibition at 1.31 µM amounted to 1.7%, the inhibition at 3.93 µM was 3% and the inhibition at 35.4 µM worked out at 44%. Also, the “Synergy score with dexamethasone, MM.1S” value in the experiment on MM.1S cells [2] (72 h) was 1.44.
For the compound `COc1ccc(C2CNC(=O)C2)cc1OC1CCCC1` (centres unmarked) [Rolipram, 4-(3-cyclopentyloxy-4-methoxyphenyl)-2-pyrrolidone], in the experiment with H929 cells, the “Synergy score with dexamethasone, H929” value is reported as 0.0927. For the same compound, the “Synergy score … RPMI-8226” value in the experiment on RPMI-8226 cells (setting [6]) is listed as 1.43. Also, the “Synergy score with dexamethasone, MM.1S” value in the experiment on MM.1S cells [2] (72 h) stood at 0.203.
As to `Nc1ccn([C@@H]2O[C@H](CO)[C@@H](O)C2(F)F)c(=O)n1` [Gemcitibine], the synergy score in the experiment with H929 cells (in combination with ADAC) worked out at 0.07; with MM.1R cells (setting [5]) it was 1.2; in the experiment on RPMI-8226 cells (in combination with ADAC) it was 0.3; with MM.1S cells [2] (in combination with ADAC), 1.42.
Take `CCCCCC[C@@H]([C@@H](C)O)n1cnc2c(N)ncnc21` (racemic) [EHNA, erythro-9-(2-hydroxy-3-nonyl)adenine]: the “Synergy score … RPMI-8226” value in the experiment with RPMI-8226 cells is 1.14.
In the case of `CN(C(=O)CCCOc1ccc2[nH]c(=O)ccc2c1)C1CCCCC1` [Cilostamide, N-cyclohexyl-4-((1,2-dihydro-2-oxo-6-quinolinyl)oxy)-N-methyl-butanamide], the “Synergy score with dexamethasone, H929” value with H929 cells is listed as 0.982. In addition, the “Synergy score … RPMI-8226” value in the experiment with RPMI-8226 cells (setting [6]) is 1.42. In the experiment on MM.1S cells [2] (setting [7]), the inhibition at 0.368 µM stood at 0.46%, the inhibition at 1.1 µM came to 2.4%, the inhibition at 3.31 µM was -2% and the inhibition at 9.93 µM came to 4.2%. In the experiment on MM.1S cells [2] (setting [7]), the inhibition at 29.8 µM amounted to 33%. The “Synergy score with dexamethasone, MM.1S” value with MM.1S cells [2] (72 h) is on record as 1.34.
For the compound `CCc1c2c(nc3ccc(OC(=O)N4CCC(N5CCCCC5)CC4)cc13)-c1cc3c(c(=O)n1C2)COC(=O)[C@]3(O)CC` [Irinotecan hydrochloride], the synergy score in the experiment on H929 cells (in combination with ADAC) came out at 1.877; in the experiment on H929 cells (in combination with HE-NECA), 0.6736; in the experiment with MM.1R cells (setting [5]), 3.13; in the experiment on MM.1R cells (setting [4]) it was 0.6972; with RPMI-8226 cells (in combination with ADAC), 1.414; in the experiment on RPMI-8226 cells (in combination with HE-NECA) it was 1.227. Further, the synergy score was 2.576 in the experiment with MM.1S cells [2] (in combination with ADAC) and 0.6406 in the experiment on MM.1S cells [2] (in combination with HE-NECA).
Consider `C[C@H]1c2cccc(O)c2C(=O)C2=C(O)[C@]3(O)C(=O)C(C(N)=O)=C(O)[C@@H](N(C)C)[C@@H]3[C@@H](O)[C@@H]21` [Doxycycline], for which the synergy score in the experiment with H929 cells (in combination with ADAC) is 2.35; in the experiment on MM.1R cells (setting [5]), 0.78; in the experiment on RPMI-8226 cells (in combination with ADAC), 1.17; in the experiment with MM.1S cells [2] (in combination with ADAC), 2.22.
With `OC[C@H]1O[C@@H](n2cnc3c(NC4CCCC4)nc(Cl)nc32)[C@H](O)[C@@H]1O` [CCPA, 2-chloro-N^6-cyclopentyladenosine], in the experiment on RPMI-8226 cells (setting [6]), the “Synergy score … RPMI-8226” value is recorded as 5.04. Besides, in the experiment with MM.1S cells [2] (setting [8]), the inhibition at 0.0625 µM came out at 2.4%, the inhibition at 0.187 µM was 21%, the inhibition at 0.562 µM was 15% and the inhibition at 1.69 µM was 38%. Besides, the inhibition at 5.06 µM with MM.1S cells [2] (setting [8]) is 50%. Also, in the experiment on MM.1S cells [2] (RPMI-8226, H929, MM.1S and MM.1R MM cell lines), the “activity and synergy in antiproliferation assays” value is “active and synergistic”. Also, in the experiment with MM.1S cells [2] (72 h), the “Synergy score with dexamethasone, MM.1S” value stood at 5.15.
Turning to `C[C@@H]1C[C@H]2O[C@@H]2/C=C\C=C\C(=O)Cc2c(Cl)c(O)cc(O)c2C(=O)O1` [Monordon], the “synergy score” value in the experiment on MM.1R cells was determined as 1.7.
For the compound `O=c1[nH]c(=O)n([C@H]2C[C@H](O)[C@@H](CO)O2)cc1C(F)(F)F` [Trifluridine], the “synergy score” value in the experiment with MM.1R cells (setting [4]) stood at 1.94.
As to `Cn1cnc([N+](=O)[O-])c1Sc1ncnc2nc[nH]c12` [Azathioprine], the synergy score in the experiment with H929 cells (in combination with ADAC) came out at 1.22; in the experiment with MM.1R cells (setting [5]) it was 1.26; with RPMI-8226 cells (in combination with ADAC), 1.63; in the experiment with MM.1S cells [2] (in combination with ADAC), 1.43.
Turning to `O=C1C=C2C(=CCOC2O)O1` (centres unmarked) [Patulin], the “synergy score” value in the experiment with MM.1R cells (setting [4]) is on record as 1.73.
`COc1cccc2c1C(=O)c1c(O)c3c(c(O)c1C2=O)C[C@@](O)(C(=O)CO)C[C@@H]3O[C@H]1C[C@H](N)[C@@H](O)[C@H](C)O1` [Epirubicin]: the synergy score is 0.33 in the experiment with H929 cells (in combination with ADAC), 1.42 in the experiment with MM.1R cells (setting [5]) and 1.14 in the experiment with RPMI-8226 cells (in combination with ADAC).
As for `CN1C[C@H](C(=O)N[C@]2(C)O[C@@]3(O)[C@@H]4CCCN4C(=O)[C@H](Cc4ccccc4)N3C2=O)C[C@@H]2c3cccc4[nH]cc(c34)C[C@H]21` [Dihydroergotamine], the “synergy score” value in the experiment with MM.1R cells (setting [4]) came to 2.56.
